Like-named read-outs stand apart in the source and are kept apart here.
How the values were obtained:
[1] = cited from earlier work
[2] = cited from earlier work; remark: listed apart in the source
[3] = cited from earlier work; remark: listed apart in the source
[4] = cited from earlier work; for Grade ≥3 decrease in neutrophil count: laboratory findings
[5] = system: EGFR^ex20ins PDX NSCLC tumor fragments (LU0387, CrownBio); test: Example 5: Compound IV +/- osimertinib in EGFR ex20ins PDX model; assay type: in vivo, BALB/c nude mice; conditions: once daily oral gavage, 17 days; Compound IV 100 mg/kg or osimertinib 10 mg/kg alone
Excerpt: (§1) The x-axis is days from initiation measured in time and the y-axis is mean tumor volume measured in mm^3.
Tumors continued to be measured until they reached tumor burden (>3000 mm3).

[6] = system: EGFR^ex19del/T790M PDX NSCLC tumor fragments (TM00219, Jackson Labs); test: Example 4: Compound IV +/- osimertinib in EGFR ex19del/T790M PDX model; assay type: in vivo, NSG mice; conditions: once daily oral gavage 28 days; Compound IV 100 mg/kg or osimertinib 2.5 mg/kg alone
Excerpt: as §1
The x-axis is days from initiation measured in time and the y-axis is median tumor volume measured in mm^3.
After 28 days tumors continued to be measured until they reached tumor burden (>2000 mm^3).

[7] = human, in vivo; cited from earlier work
[8] = in vivo; cited from earlier work
[9] = cited from earlier work; remark: listed apart in the source
[10] = cited from earlier work; remark: listed apart in the source
[11] = all grades, GILOTRIF n=229, pemetrexed/cisplatin n=111

SMILES: CN(C)C/C=C/C(=O)Nc1cc2c(Nc3ccc(F)c(Cl)c3)ncnc2cc1O[C@H]1CCOC1 [GILOTRIF, afatinib]
- fatal liver test abnormalities ([1]; 3865 patients): 0.18%
- liver test abnormalities ([1]; 3865 patients): 10.1%
- diarrhea [1, 11]: 96%
- dry skin [1, 11]: 31%
- paronychia [1, 11]: 58%
- pruritus [1, 11]: 21%
- rash/acneiform dermatitis [1, 11]: 90%
- stomatitis [1, 11]: 71%
- decreased appetite ([1]; human, in vivo): 29%
- fatal pneumonia ([1]; human, in vivo): 0.43%
- fatal pulmonary toxicity/interstitial lung disease (ILD)-like adverse reactions ([1]; human, in vivo): 1.3%
- fatal sepsis ([1]; human, in vivo): 0.43%
- nausea ([1]; human, in vivo): 25%
- serious adverse reaction: diarrhea ([1]; human, in vivo): 6.6%
- serious adverse reaction: dyspnea ([1]; human, in vivo): 1.7%
- serious adverse reaction: fatigue ([1]; human, in vivo): 1.7%
- serious adverse reaction: hypokalemia ([1]; human, in vivo): 1.7%
- serious adverse reaction: vomiting ([1]; human, in vivo): 4.8%
- serious adverse reactions ([1]; human, in vivo): 29%
- ventricular dysfunction (all <Grade 3) ([1]; human, in vivo): 2.2%
- vomiting ([1]; human, in vivo): 23%

SMILES: COc1cc2ncnc(Nc3ccc(F)c(Cl)c3)c2cc1OCCCN1CCOCC1 [IRESSA, gefitinib]
- skin reactions ([2]; across NSCLC): 47%
- incidence of fatal hepatotoxicity ([2]; human, in vivo): 0.04%

SMILES: C#Cc1cccc(Nc2ncnc3cc(OCCOC)c(OCCOC)cc23)c1.Cl [TARCEVA, erlotinib]
- overall incidence of ILD ([3]; approximately 32,000 patients, all studies): approximately 1.1%
- discontinued therapy due to adverse reactions ([3]; human, in vivo): 14.3%
- dose interruptions or reductions due to adverse reactions ([3]; human, in vivo): 37%
- dose modification due to asthenia ([3]; human, in vivo): 3.6%
- dose modification due to diarrhea ([3]; human, in vivo): 10%
- dose modification due to rash ([3]; human, in vivo): 13%
- liver function test abnormalities (ALT, AST, bilirubin) ([3]; human, in vivo): Grade 2 and Grade 3 liver function test abnormalities
- median time to onset of diarrhea ([3]; human, in vivo): 32 days
- median time to onset of rash ([3]; human, in vivo): 15 days
- most frequent Grade 3-4 adverse reactions ([3]; human, in vivo): rash and diarrhea
- most frequent adverse reactions: diarrhea, asthenia, rash, cough, dyspnea, decreased appetite ([3]; human, in vivo): ≥ 30%
- median onset of ILD symptoms after initiating therapy ([3]; patients with ILD): 39 days
- onset of ILD symptoms after initiating therapy (span) ([3]; patients with ILD): between 5 days to more than 9 months

SMILES: CCN1CCN(Cc2ccc(Nc3ncc(F)c(-c4cc(F)c5nc(C)n(C(C)C)c5c4)n3)nc2)CC1 [abemaciclib]
- Grade ≥3 decrease in neutrophil count ([4]; MONARCH 1): 27%
- Grade 3 diarrhea ([4]; alone, MONARCH 1): 20%
- diarrhea ([4]; alone, MONARCH 1): 90%
- neutropenia ([4]; alone, MONARCH 1): 37%
- alanine aminotransferase (ALT) increased ([4]; human, in vivo): 41%
- aspartate aminotransferase (AST) increased ([4]; human, in vivo): 37%
- dose reductions due to diarrhea of any grade ([4]; human, in vivo): 19%
- dose reductions due to neutropenia of any grade ([4]; human, in vivo): 10%
- permanent treatment discontinuation due to an adverse event ([4]; human, in vivo): 9%
- Grade 3 diarrhea ([4]; plus fulvestrant, MONARCH 2): 13%
- diarrhea ([4]; plus fulvestrant, MONARCH 2): 86%
- neutropenia ([4]; plus fulvestrant, MONARCH 2): 46%
- Grade ≥3 decrease in neutrophil count ([4]; plus fulvestrant, MONARCH 2): 32%
- dose reductions due to an adverse reaction ([4]; plus fulvestrant): 43%

SMILES: C=CC(=O)Nc1cc(Nc2nccc(-c3cn(C)c4ccccc34)n2)c(OC)cc1N(C)CCN(C)C [osimertinib, reference compound]
- tumor growth vs vehicle, single agent [5]: did not cause an effect
- tumor growth vs vehicle, single agent [6]: modest tumor growth inhibition
- nail toxicity [7]: 22%
- patients experiencing Grade 3 neutropenia [7]: up to 2.2%

SMILES: CC(=O)c1c(C)c2cnc(Nc3ccc(N4CCNCC4)cn3)nc2n(C2CCCC2)c1=O [palbociclib]
- T½ [8]: roughly 27 hours
- incidence of neutropenia ([9]; Study 1 (PALOMA-2)): 80%
- incidence of neutropenia ([9]; Study 2 (PALOMA-3)): 83%
- complete drug discontinuation ([9]; human, in vivo): 8%
- median duration of Grade ≥3 neutropenia ([9]; human, in vivo): 7 days
- median time to first episode of any grade neutropenia ([9]; human, in vivo): 15 days
- patients requiring a dose interruption ([9]; human, in vivo): 71%
- patients requiring a dose reduction ([9]; human, in vivo): 36%
- Grade ≥3 decrease in neutrophil counts ([9]; patients in PALOMA-2 and PALOMA-3): 66%
- increased alanine transferase ([9]; patients treated): 40%
- increased aspartate aminotransferase (AST) ([9]; patients treated): 48%

SMILES: CN(C)C(=O)c1cc2cnc(Nc3ccc(N4CCNCC4)cn3)nc2n1C1CCCC1 [ribociclib]
- Grade 3 or 4 increases in ALT ([10]; KISQALI treatment arms): 10%
- Grade 3 or 4 increases in AST ([10]; KISQALI treatment arms): 7%
- patients with at least one average QTcF interval of more than 480 msec after baseline ([10]; MONALEESA-2 study): 3.3%
- alopecia ([10]; adverse reaction): 33%
- back pain ([10]; adverse reaction): 20%
- constipation ([10]; adverse reaction): 25%
- diarrhea ([10]; adverse reaction): 35%
- fatigue ([10]; adverse reaction): 37%
- headache ([10]; adverse reaction): 22%
- leukopenia ([10]; adverse reaction): 33%
- neutropenia ([10]; adverse reaction): 75%
- vomiting ([10]; adverse reaction): 29%
- Grade 3/4 decrease in neutrophil count ([10]; based on laboratory findings): 60%
- treatment discontinuation due to increased ALT ([10]; first mention): 4%
- QT interval ([10]; human, in vivo): prolong the QT interval in a concentration-dependent manner
- dose reductions due to adverse reactions ([10]; human, in vivo): 45%
- permanent discontinuations due to ARs ([10]; human, in vivo): 7%
- treatment discontinuation due to vomiting ([10]; human, in vivo): 2%
- treatment discontinuation due to increased ALT ([10]; second mention): 3%

Reference: US11395821B2, “Treatment of EGFR-driven cancer with fewer side effects” (G1 Therapeutics, Inc., priority 2017, dated 2022)
